In patent US4835176A, “Glycookadaic acid, preparation thereof and use thereof” (priority 1987, dated 1989):
≈ marks a conversion by molar mass, not a printed value. Entries after “also recorded” stand apart in the source; their conditions may differ.

Assays:
[1] = system: L 929 cells; experiment: Effect on cytotoxic activity of TNF; assay type: cell-based
Protocol: L 929 cells (10^4 cells/well) was cultivated on a test plate having 96 wells, and after 24 hours, a test drug and recombinant human-tumor necrosis factor (rHu - TNF) were added thereto such that rHu - TNF became 2.5×10^-11 g/ml (TNF activity of 2 unit/ml), and then, after 24 hours, the number of living cells was measured.
The effect of test drug on the cytotoxicity of TNF was calculated according to the above-mentioned formula (A) and shown by "%" value.
^1 The experiments were effected in the presence of TNF (2 units/ml)

[2] = system: B-16 melanoma cell; experiment: Cytotoxicity, 50% growth inhibition of B-16 melanoma cell; assay type: cell-based
Protocol: (§1) B-16 melanoma cell, P388 leukemia cell or L 929 cell was cultivated together with a prescribed amount of a test drug on a 24-well or 96-well test plate and the number of living cells was measured one day or 3 days later to know the 50% growth inhibition concentration.

[3] = system: P388 leukemia cell; experiment: Cytotoxicity, 50% growth inhibition of P388 leukemia cell; assay type: cell-based; settings: Mus musculus, read-out: 50% growth inhibition concentration (IC50)
Protocol: as §1

[4] = system: lipoprotein lipase (LPL) of 3T3-L1 cells; experiment: Recovery effect on cachectin/TNF-induced reduction of lipoprotein lipase (LPL) in adipocytes; assay type: cell-based
Protocol: (§2) 3T3-L1 cells (5×10^4 cells per well) were cultivated in wells of 48-well test plate for about one week until the cell growth reached became confluent. Test drug and 4×10^-10 ^- 10 g/ml (32 unit/ml as TNF activity) of recombinant human TNF (rHu-TNF) were added, and the cultivation was further continued.
(§3) After 20 hours, the test drug and rHu-TNF were removed. Then 10 unit/ml of heparin was added, and after 90 min., activity of lipoprotein lipase (LPL) isolated from 3T3-L1 cell by heparin was measured according to the method as described in Nelsson-Ehle, P., et al., J. Lipid Res., 17, 536 (1976).
(§4) On the LPL activity measured, the recovery on the reduction of lipoprotein lipase production was calculated by the following formula: [formula]
(§5) ^1 The experiment was performed in the presence of rHu TNF (32

[5] = as above; assay type: cell-based; settings: mouse, 3t3-l1 cells; read-out: Concentration at which OK exhibits cytotoxicity
Protocol: as §2, §3, §4, §5

[6] = system: L 929 cell; experiment: Cytotoxicity, 50% growth inhibition of L 929 cell; assay type: cell-based
Protocol: as §1

[7] = Acute toxicity, i.p. injection in BDF1 mouse; assay type: in vivo; settings: in vivo, ip, 5 weeks old, female, intraperitoneal, read-out: 50% Lethal dose (LD50)
Protocol: (§6) A test drug was injected into the peritoneal cavity of BDF1 mouse (5 weeks old, female) to measure 50% lethal dose (LD50).

[8] = Solubility; assay type: physicochemical
[9] = Stability; assay type: physicochemical
[10] = system: BDF1 mouse; experiment: Acute toxicity, i.p. injection in BDF1 mouse; assay type: in vivo
Protocol: as §6

[11] = Acid or base; assay type: physicochemical

Compound	Effect on cytolytic activity of TNF (in words) [1]	IC50 ([2]; Mus musculus, B16, 24 h, B-16 melanoma, cultivated for one day, read-out: 50% growth inhibition concentration (IC50)) [µg/mL]	IC50 [3] [µg/mL]	Effect on lowered LPL production (in words) ([4]; OK, even at 0.1 μg/ml)	MCC [5] [µg/mL]	IC50 ([6]; Mus musculus, L929, read-out: 50% growth inhibition concentration (IC50)) [µg/mL]	LD50 [7] [mg/kg]	50% growth inhibition concentration (IC50) ([2]; B-16 melanoma, cultivated for one day) [µg/mL]	Cytotoxicity compared with OK ([2]; all cell species of Table 1)	Solubility ([8]; acetone or chloroform)	Solubility ([8]; methanol, ethanol or pyridine)	Stability ([9]; acid)	Stability ([9]; alkali)	Recovery of LPL generation in adipocytes (in words) [4]	Concentration with effect of recovering from the lowering of production of lipoprotein lipase ([4]; 3T3-L1 cells with rHu-TNF) [µg/mL]	50% growth inhibition concentration (IC50) [6] [µg/mL]	Toxicity (in words) [10]	50% Lethal dose (LD50) ([10]; 5 weeks old, female, intraperitoneal) [mg/kg]	LD50 of GOK relative to that of OK ([10]; intraperitoneal) [times]	Acid or base [11]
C=C1C(O)C2OC3(CCC(C=CC(C)C4CC(C)=CC5(OC(CC(C)(O)C(=O)O)CCC5O)O4)O3)CCC2OC1C(O)CC(C)C1OC2(CCCCO2)CCC1C (stereo not drawn) [OK, okadaic acid]	Neither GOK nor OK affected the cytolytic activity of TNF	0.018 (≈ 0.0224 µM)	0.024 (≈ 0.0298 µM)	did not exhibit the effect of inhibition	0.1	0.084 (≈ 0.104 µM)	0.16	–	–	–	–	–	–	–	–	–	–	–	–	–
glycookadaic acid [GOK]	Neither GOK nor OK affected the cytolytic activity of TNF; also recorded: does not suppress the cytotoxic activity of cachectin/TNF toward cancer cells	–	–	–	–	–	–	19	much weaker than that of OK	Insoluble or sparsely soluble	Easily soluble	Unstable to acid	Relatively stable to alkali	specifically recovers the lowering effect on the generation of lipoprotein lipase in adipocytes	3 to 10	28	toxicity of GOK is low; also recorded: far safer drug than OK	> 16	≥ 100	Weekly acidic substance
